Columns and labels:
NDM-1 [1] = target: T1, NDM-1 (Klebsiella pneumoniae, UniProt C7C422); parameters: made in house; host or cells: E. coli; method as in doi:10.1016/j.ejbas.2015.07.006; settings: cited from earlier work
NDM-1 [2] = target: T1, NDM-1; experiment: ITC multi-injection inhibition assay; assay type: biochemical; parameters: made in house; host or cells: E. coli; settings: for Kiu (uncompetitive inhibition constant): ITC inhibition assay, penicillin G, 25°C, 50 mM Tris–HCl, pH 7.0, 100 mM NaCl; for mode of inhibition: pH 7.0
Text: Competitive (Kic) and uncompetitive (Kiu) inhibition constant values for each inhibitor were obtained by fitting calculated reaction rates (υ) at different inhibitor concentrations to (eqn 5) using nonlinear regression analysis in Origin software (embedded with ITC), with Kic and Kiu set as shared parameters between all datasets, inhibitor concentration [I], [E]tot, [S] as independent variables and υ as dependent variable.

NDM-1 [3] = target: T1, NDM-1; settings: ITC, pH 7.0, 25°C
Text: Successive injections of antibiotic into the sample cell were made at 120 s intervals. Following (eqn 3), the change in thermal power (dQ/dt) from each titration was converted into the reaction rate (υ). These rates were used to fit to the Michaelis–Menten equation (eqn 4) to obtain the kinetic parameters KM (Michaelis–Menten constant) and kcat (turnover rates), where [E]tot is the total concentration of active enzyme. (3) υ=dP/dt=1/VΔHapp⋅dQ/dt (4) υ=kcat[E]tot[S]/KM+[S]

NDM-1 [4] = target: T1, NDM-1; experiment: ITC single injection assay, enthalpy of β-lactam hydrolysis; assay type: biochemical; parameters: made in house; host or cells: E. coli; settings: for ΔHapp: NDM-1 catalysed hydrolysis, Tris–HCl pH 7.0, 25°C; for ΔHint: Y-axis intercept of ΔHapp vs ΔHion; for ΔHint / n (number of exchanging protons): pH 7.0; for n (number of exchanging protons): slope of ΔHapp vs ΔHion
Experimental: Real-time changes of heat-flow were recorded continuously until return to baseline. Control experiments were performed by titrating substrate to buffer and using those data in corrections for heat of dilution before values of ΔHapp were determined using the embedded Origin software, by dividing integrated heat by the molar quantity of substrate converted according to (eqn 1), where dQ/dt is the rate of heat production, V is the volume of the sample cell and [S]t = 0 is the substrate concentration: (1) ΔH=ft=0∞dQ/dtdt/(V[S](t=0))
Experiments were also repeated in HEPES and phosphate buffers and the intrinsic enthalpy change (ΔHint) of the reactions calculated according to (eqn 2) by plotting the measured ΔHapp as a function of ΔHion, where ΔHion is the ionisation enthalpy of the buffer used and n represents the number of exchanging protons. The values of ΔHion used in the calculation were ΔHion (Tris–HCl) = 11.34 kcal/mol, ΔHion (HEPES) = 4.88 kcal/mol and ΔHion (phosphate) = 0.86 kcal/mol. (2) ΔHapp=ΔHint+n ΔHion

NDM-1 [5] = target: T1, NDM-1; experiment: biochemical
Experimental: Rates were also determined in the presence of inhibitor by pre-incubation with the enzyme for 30 min at RT before starting kinetic experiments. IC50 values were determined using GraphPad Prism5 software (GraphPadSoftware, La Jolla, CA, USA) by plotting percentage of inhibition against inhibitor concentration; average values from three measurements are reported.

[6] = test system: clinical E. coli–NDM-1 strain; experiment: MIC determination, broth microdilution (CLSI); assay type: cell-based, Escherichia coli; settings: for synergistic effect with imipenem: 200 and 400 μM inhibitor
Experimental: Single colonies of E. coli–NDM-1 were used to inoculate Mueller–Hinton medium and were grown at 37°C overnight. […] Results were obtained after incubating the microtitre plate at 37°C for a further 18 h and turbidity of bacterial growth was recorded using a plate reader.

[7] = test system: clinical E. coli strain expressing NDM-1 gene (E. coli–NDM-1); settings: 400 μM compound, imipenem titrated into E. coli–NDM-1 suspension; efficacy order 7 > 1 > 8
CcrA = settings: cited from earlier work
ImiS = settings: cited from earlier work
L1 = settings: cited from earlier work
IMP-1 = settings: cited from earlier work
CphA = settings: cited from earlier work

T1 sequence (C7C422 29-270 limits assumed): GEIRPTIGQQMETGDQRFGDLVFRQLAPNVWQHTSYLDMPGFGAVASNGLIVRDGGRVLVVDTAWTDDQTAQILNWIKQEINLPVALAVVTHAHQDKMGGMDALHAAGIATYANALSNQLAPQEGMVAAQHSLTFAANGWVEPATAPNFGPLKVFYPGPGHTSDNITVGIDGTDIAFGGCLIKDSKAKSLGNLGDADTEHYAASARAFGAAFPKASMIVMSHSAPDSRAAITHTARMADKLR

In the case of `Cc1cc(/N=N/c2ccc(O)c(C(=O)O)c2)ccc1O` [Compound 2], the “predicted inhibition in docking” value (NDM-1 [1]) is given as “predicted to inhibit NDM-1”.

For `C[C@H](CS)C(=O)N1CCC[C@@H]1C(=O)O` [Compound 1, D-Captopril, reference compound], the “Kiu (uncompetitive inhibition constant)” value (NDM-1 [2]) was 178 ± 21 µM.

Compound `CC1(C)S[C@@H]2[C@H](NC(=O)Cc3ccccc3)C(=O)N2[C@H]1C(=O)O` [Penicillin G, penicillin G] has a Km (NDM-1 [3]) of 139 ± 12 µM, a kcat (NDM-1 [3]) of 54 ± 1 s⁻¹ and a ΔHapp (NDM-1 [4]) of -27.9 ± 0.01 kcal/mol. For the same compound, the ΔHapp (NDM-1 [4]; listed as penicillin G) was “–27.9 kcal/mol”, the ΔHint (NDM-1 [4]) was -18.3 ± 0.73 kcal/mol and the “n (number of exchanging protons)” value (NDM-1 [4]) was −0.87 ± 0.10. The “n (number of exchanging protons)” value (NDM-1 [4]; listed as penicillin G) was −0.87 (± 0.10).

`Cc1nnc(SCC2=C(C(=O)O)N3C(=O)[C@@H](NC(=O)Cn4cnnn4)[C@H]3SC2)s1` [Cefazolin, cefazolin] showed a Km (NDM-1 [3]) of 237 ± 14 µM, a kcat (NDM-1 [3]) of 42 ± 1 s⁻¹ and a ΔHapp (NDM-1 [4]) of -28.3 ± 0.97 kcal/mol. For the same compound, the ΔHapp (NDM-1 [4]; listed as cefazolin) was “–28.3 kcal/mol”, the ΔHint (NDM-1 [4]) was -5.20 ± 0.04 kcal/mol and the “n (number of exchanging protons)” value (NDM-1 [4]) was −1.89 ± 0.04.

For `O=C(O)[C@H]1CS[C@@H](C(=O)O)N1` (racemic) [Compound 8, rac-thiazolidine-2,4-dicarboxylic acid], the IC50 (NDM-1 [5]) was 3.45 ± 0.26 µM, the “MIC of imipenem in combination with inhibitor” value (shortened to “MIC … with inhibitor”) ([6]; 200 μM inhibitor) was 16 µg/mL and the “MIC … with inhibitor” value ([6]; 400 μM inhibitor) was 8 µg/mL. For the same compound, the “reduction of MIC of imipenem” value ([6]; 400 μM inhibitor) was 2 fold, the “synergistic effect with imipenem” value [6] was “weaker synergy” and the “inhibition of imipenem turnover in live bacteria” value [7] was “capable of inhibiting the turnover rate of imipenem”. The “effect on activity” value (CcrA) was “powerful effect”, the Ki (CcrA; class B1 CcrA) was 0.64 µM and the “effect on activity” value (ImiS) was “powerful effect”. The Ki (ImiS; class B2 ImiS) was 7.1 µM, the “effect on activity” value (L1) was “powerful effect” and the Ki (L1; class B3 L1) was 1.8 µM. The Ki (NDM-1 [2]) was 152 ± 6 µM, the “Kiu (uncompetitive inhibition constant)” value (NDM-1 [2]) was 5 ± 0.46 µM and the mode of inhibition (NDM-1 [2]) was “predominantly uncompetitive”.

For `C[C@@H](O)[C@H]1C(=O)N2C(C(=O)O)=C(SCCN=CN)C[C@H]12` [Imipenem, imipenem], the Km (NDM-1 [3]) was 168 ± 28 µM, the kcat (NDM-1 [3]) was 23 ± 1 s⁻¹ and the MIC ([6]; Escherichia coli, 0 μM inhibitor, read-out: MIC of imipenem) was 16 µg/mL. For the same compound, the ΔHapp (NDM-1 [4]) was -32.5 ± 0.08 kcal/mol, the ΔHapp (NDM-1 [4]; listed as imipenem) was “–32.5 kcal/mol” and the ΔHint (NDM-1 [4]) was -18.4 ± 0.12 kcal/mol. The “n (number of exchanging protons)” value (NDM-1 [4]) was −1.24 ± 0.02 and the “n (number of exchanging protons)” value (NDM-1 [4]; listed as imipenem) was −1.24 (± 0.02).

With `O=C(O)c1cccc(C(=O)O)n1` [Compound 7, pyridine-2,6-dicarboxylic acid] the IC50 (NDM-1 [5]) was 1.13 ± 0.04 µM, the “MIC … with inhibitor” value ([6]; 200 μM inhibitor) was 4 µg/mL and the “MIC … with inhibitor” value ([6]; 400 μM inhibitor) was 1 µg/mL. The “synergistic effect with imipenem” value [6] was “restore the susceptibility”, the “inhibition of imipenem turnover in live bacteria” value [7] was “capable of inhibiting the turnover rate of imipenem” and the “inhibition” value (IMP-1) was “effective inhibitor”. The “inhibition” value (CphA) was “effective inhibitor”, the Ki (NDM-1 [2]) was 2.17 ± 0.48 µM and the “Kiu (uncompetitive inhibition constant)” value (NDM-1 [2]) was 2.07 ± 0.06 µM. For the same compound, the mode of inhibition (NDM-1 [2]) was “mixed inhibitor”.

In the case of `O=C(O)/C=C/C(=O)O` [Compound 6, fumaric acid], the IC50 (NDM-1 [5]) is reported as 232 ± 5 µM, the Ki (NDM-1 [2]) is reported as 198 ± 50 µM and the “Kiu (uncompetitive inhibition constant)” value (NDM-1 [2]) is reported as 638 ± 94 µM. For the same compound, the mode of inhibition (NDM-1 [2]) was “mainly competitive”.

With `O=C(O)[C@@H](O)[C@H](O)C(=O)O` [Compound 5, D-(−)-tartaric acid] the IC50 (NDM-1 [5]) was 409 ± 16 µM, the Ki (NDM-1 [2]) was 365 ± 72 µM and the “Kiu (uncompetitive inhibition constant)” value (NDM-1 [2]) was 993 ± 107 µM. The mode of inhibition (NDM-1 [2]) was “mainly competitive”.

— article PMC5897741, “Thermokinetic profile of NDM-1 and its inhibition by small carboxylic acids” (Bioscience Reports, 2018)
